Results taken from patent publication US7872030B2, “Use of 2-[5-(4-fluorophenyl)-3-pyridylmethylaminomethyl]-chromane and its physiologically acceptable salts” (Merck Patent GmbH, priority 2001, dated 2011).

Legend:
[1] = system: Parkinsonian cynomolgus monkey; experiment: Adverse effects of chronic l-dopa therapy in MPTP Parkinsonian cynomolgus monkey; type: in vivo; settings: MPTP monkeys chronically treated with l-dopa
Method: Treatment of adverse effects of conventional anti-Parkinsonian drugs as defined above are determined in a modification of the animal model of the Parkinsonian cynomolgus monkey according to P. J. Blanchet et al., Exp. Neurology 1998; 153: 214-222. Monkeys render parkinsonian by repeated injections of 1-methyl-4-phenyl-1,2,3,6-tetrahydropyridine (MPTP). The Parkinsonian monkeys are chronically treated with the standard l-dopa therapy according to P. J. Blanchet et al., Mov. Disord., 1998; 13: 798-802. Longterm treatment with l-dopa induces extrapyramidal motor side effects and psychotic states which are both qualitatively and quantitatively, assessed by the Abnormal Involuntary Movement Scale (P. J. Blanchet et al., Mov. Disord. 1998; 13: 798-802) for different body parts (face, neck, trunk, each limb) and by rating for psychotic states by observing the monkey's attention, reactivity and mobility.

[2] = system: reserpinized rat or mouse; experiment: Reserpinized rat or mouse (akinesia); type: in vivo; settings: 24 h after reserpine; for distance travelled and time active: activity meters
Method: A typical animal model is the reserpinized rat or mouse (e.g. […]. Neural Transm.-Park. Dis. Dement. Sect., 1994; 7: 133-142; M. Gossel et al., J. Neural Transm.-Park. Dis. Dement. Sect., 1995; 10: 27-39; N. R. Hughes et al., Mov. Disord., 1998; 13: 228-233). Reserpine is a potent depleter of monoamines and produces nearly complete akinesia in both species. Prominent 24 h after application, the distance travelled and the time active is nearly zero as measured in conventional activity meters.

[3] = system: patients with Huntington's disease; experiment: Trial in patients with Huntington's disease; type: in vivo, human; settings: add on, 2.5 to 20 mg b.i.d., vs placebo
Method: A typical trial to establish the effect of the compounds according to the invention on chorea, voluntary motor performance, and functional disability in patients with Huntington's disease encompasses 32 genetically diagnosed patients. […] The dose of blinded medication is titrated over a period of 3 weeks in a range from 2.5 to 20 mg b.i.d. Then the medication is held constant for 1 week. Assessments are performed in the week before and at the last day of the trial. Chorea is scored using the abnormal involuntary movement scale (AIMS, W. Guy, in: ECDEU assessment manual. Rockville Md.: US dept. of health, education and welfare, 1976: 534-537), the unified Huntington's disease rating scale (UHDRS, Huntington study group, 1996, Movement Disord, 11: 136-42), and judgement of video recordings. Voluntary motor performance is assessed using the UHDRS motor scale. Patients and their partners complete a questionnaire regarding functional disability.

[4] = system: patients with cervical dystonia (spasmodic torticollis); experiment: Double-blind, placebo-controlled study in cervical dystonia (TWSTRS); type: in vivo, human; settings: 2.5 mg to 20 mg b.i.d.
Pietrain pig = experiment: Campus Syndrome in the Pietrain pig (tremor); type: in vivo
Text: (§1) Typical genetic models in mutant animals are the Campus Syndrome in the Pietrain pig according to A. Richter et al. (Exp. Neurology, 1995; 134: 205-213) or the Weaver mutant mouse according to J. R. Simon and B. Ghetti (Mol. Neurobiol., 1994; 9: 183-189). In the Campus Syndrome model, these mutant pigs show a high-frequency tremor when standing and during locomotion, but not while lying at rest. Assessment of tremor is made by accelerometric recording. In the Weaver mutant mouse, degenerative cerebellar atrophy is fould in association with tremor, gait instability, and toppling over the sides after a few steps.

Weaver mutant mouse = Weaver mutant mouse (locomotor activity); settings: in vivo
Text: as §1

| SMILES | overall choreiform dyskinesias and dystonic dyskinesias (Abnormal Involuntary Movement Scale) [1] | psychotic states (attention, reactivity, mobility rating) [1] | akinesia [2] | distance travelled and time active [2] | voluntary and involuntary motor performance (AIMS, UHDRS, video) [3] | TWSTRS scores [4] | tremor when standing and during locomotion (Pietrain pig) | locomotor activity (Weaver mutant mouse) |
| --- | --- | --- | --- | --- | --- | --- | --- | --- |
| Fc1ccc(-c2cncc(CNC[C@@H]3CCc4ccccc4O3)c2)cc1 [(S)-(+)-2-[5-(4-fluorophenyl)-3-pyridylmethylaminomethyl]-chromane] | reduced | reduced | dose-dependently reduced akinesia | restored distance travelled and time active to about the level of normal animals | significant improvement | significant improvement | reduce disabling tremor | enhance locomotor activity |
| Fc1ccc(-c2cncc(CNCC3CCc4ccccc4O3)c2)cc1 (racemic) [(R/S)-(−/+)-2-[5-(4-fluorophenyl)-3-pyridylmethylaminomethyl]-chromane] | reduced | reduced | dose-dependently reduced akinesia | restored distance travelled and time active to about the level of normal animals | significant improvement | significant improvement | reduce disabling tremor | enhance locomotor activity |
